Source: PubChem BioAssay AID216 (DTP/NCI, 2004)
Values joined by “and” are separate entries in the source; they are usually repeats but may differ in a detail not shown here. Identical values can stand only once. Inconclusive results and toxic doses are left out. The calls were made as follows: active = survival T/C of 150% or more; inactive = T/C below 125% in these data.

System: BDF1 mice, P288 leukemia ip, survival T/C
Experiment: NCI In Vivo Anticancer Drug Screen. Data for tumor model P288 Lymphocytic Leukemia (intraperitoneal) in B6D2F1 (BDF1) mice
Conditions: endpoint: survival time, mean or median, higher = longer survival
Experimental: The antitumor activity of compounds was measured in mice bearing transplantable tumors. Survival or tumor size were measured and the results are expressed as the measurement made in the treated group (T) divided by the measurement made in the vehicle treated control group (C). The tumor model used in this assay is P288 Lymphocytic Leukemia (intraperitoneal) in B6D2F1 (BDF1) mice

[1] = dose: 125.0 micrograms/kg/injection, schedule: Q01DX010 (ip), vehicle: saline
[2] = dose: 10.0 mg/kg/injection, schedule: Q01DX010 (ip), vehicle: saline
[3] = dose: 20.0 mg/kg/injection, schedule: Q01DX010 (ip), vehicle: saline
[4] = dose: 40.0 mg/kg/injection, schedule: Q01DX010 (ip), vehicle: saline
[5] = dose: 80.0 mg/kg/injection, schedule: Q01DX010 (ip), vehicle: saline
[6] = dose: 25.0 mg/kg/injection, schedule: Q01DX Z (ip), vehicle: carboxymethylcellulose (CMC)
[7] = dose: 0.25 mg/kg/injection, schedule: Q01DX Z (ip), vehicle: carboxymethylcellulose (CMC)
[8] = dose: 0.5 mg/kg/injection, schedule: Q01DX Z (ip), vehicle: carboxymethylcellulose (CMC)
[9] = dose: 1.0 mg/kg/injection, schedule: Q01DX Z (ip), vehicle: carboxymethylcellulose (CMC)
[10] = dose: 2.0 mg/kg/injection, schedule: Q01DX Z (ip), vehicle: carboxymethylcellulose (CMC)

Measured: T/C

Nc1nc(F)nc2c1ncn2C1OC(CO)C(O)C1O (stereo not given)
inactive: dose: 0.5 mg/kg/injection, schedule: Q01DX010 (ip), vehicle: saline 111 % of control | dose: 1.0 mg/kg/injection, schedule: Q01DX010 (ip), vehicle: saline 100 % of control | dose: 2.0 mg/kg/injection, schedule: Q01DX010 (ip), vehicle: saline 88 % of control | dose: 4.0 mg/kg/injection, schedule: Q01DX010 (ip), vehicle: saline 88 % of control | [1] 88 % of control | dose: 500.0 micrograms/kg/injection, schedule: Q01DX010 (ip), vehicle: saline 111 % of control | dose: 1000.0 micrograms/kg/injection, schedule: Q01DX010 (ip), vehicle: saline 116 % of control

CC/C(=C(/CC)c1ccc(O)cc1)c1ccc(O)cc1
inactive: dose: 1.0 mg/kg/injection, schedule: Q01DX Z (sc), vehicle: steriod suspending solution 100 % of control | dose: 2.0 mg/kg/injection, schedule: Q01DX Z (sc), vehicle: steriod suspending solution 103 % of control | dose: 4.0 mg/kg/injection, schedule: Q01DX Z (sc), vehicle: steriod suspending solution 97 % of control | dose: 8.0 mg/kg/injection, schedule: Q01DX Z (sc), vehicle: steriod suspending solution 118 % of control | dose: 12.5 mg/kg/injection, schedule: Q01DX010 (sc), vehicle: steriod suspending solution 100 % of control | dose: 16.0 mg/kg/injection, schedule: Q01DX Z (sc), vehicle: steriod suspending solution 118 % of control | dose: 25.0 mg/kg/injection, schedule: Q01DX010 (sc), vehicle: steriod suspending solution 106 % of control | dose: 31.0 mg/kg/injection, schedule: Q01DX Z (sc), vehicle: steriod suspending solution 103 % of control | dose: 50.0 mg/kg/injection, schedule: Q01DX010 (sc), vehicle: steriod suspending solution 112 % of control and 121 % of control | dose: 62.0 mg/kg/injection, schedule: Q01DX Z (sc), vehicle: steriod suspending solution 97 % of control | dose: 100.0 mg/kg/injection, schedule: Q01DX010 (sc), vehicle: steriod suspending solution 114 % of control and 100 % of control | dose: 125.0 mg/kg/injection, schedule: Q01DX Z (sc), vehicle: steriod suspending solution 91 % of control | dose: 250.0 mg/kg/injection, schedule: Q01DX Z (sc), vehicle: steriod suspending solution 101 % of control

COc1cc(-c2ccc(Nc3ccccc3C(=O)O)c(OC)c2)ccc1N
active: [4] 200 % of control | [5] 200 % of control and 228 % of control
inactive: [2] 94 % of control | [3] 114 % of control and 100 % of control

O=c1[nH]c(=O)n(C2CC(O)C(CO)O2)cc1F (stereo not given)
inactive: dose: 5.0 mg/kg/injection, schedule: Q01DX010 (ip), vehicle: saline 106 % of control | [2] 109 % of control and 100 % of control | [3] 112 % of control and 100 % of control | [6] 111 % of control | [4] 113 % of control | [5] 118 % of control | dose: 200.0 mg/kg/injection, schedule: Q01DX Z (ip), vehicle: carboxymethylcellulose (CMC) 111 % of control and 124 % of control | dose: 400.0 mg/kg/injection, schedule: Q01DX Z (ip), vehicle: carboxymethylcellulose (CMC) 108 % of control | dose: 800.0 mg/kg/injection, schedule: Q01DX Z (ip), vehicle: carboxymethylcellulose (CMC) 86 % of control
active: dose: 100.0 mg/kg/injection, schedule: Q01DX Z (ip), vehicle: carboxymethylcellulose (CMC) 156 % of control and 163 % of control

Nc1nc(=S)c2[nH]cnc2[nH]1
inactive: dose: 0.12 mg/kg/injection, schedule: Q01DX Z (ip), vehicle: carboxymethylcellulose (CMC) 101 % of control | [7] 105 % of control and 109 % of control | [8] 111 % of control and 122 % of control and 86 % of control | [9] 107 % of control and 100 % of control | [10] 103 % of control and 117 % of control and 98 % of control | dose: 2.5 mg/kg/injection, schedule: Q01DX010 (ip), vehicle: other 115 % of control | dose: 4.0 mg/kg/injection, schedule: Q01DX Z (ip), vehicle: carboxymethylcellulose (CMC) 94 % of control | dose: 5.0 mg/kg/injection, schedule: Q01DX010 (ip), vehicle: other 110 % of control and 94 % of control | dose: 10.0 mg/kg/injection, schedule: Q01DX010 (ip), vehicle: other 94 % of control

CCN(CCNc1ccc(C)c2sc3cc(Cl)ccc3c(=O)c12)CC(C)O (stereo not given)
inactive: dose: 31.3 mg/kg/injection, schedule: Q01DX010 (ip), vehicle: saline 112 % of control | dose: 62.5 mg/kg/injection, schedule: Q01DX010 (ip), vehicle: saline 94 % of control | dose: 125.0 mg/kg/injection, schedule: Q01DX010 (ip), vehicle: saline 105 % of control | dose: 250.0 mg/kg/injection, schedule: Q01DX010 (ip), vehicle: saline 118 % of control and 94 % of control

Cn1cnc([N+](=O)[O-])c1Sc1nc(N)nc2nc[nH]c12
inactive: [7] 107 % of control | [8] 94 % of control | [9] 113 % of control | [10] 105 % of control

S=P(N1CCOCC1)(N1CC1)N1CC1
inactive: dose: 3.1 mg/kg/injection, schedule: Q01DX Z (ip), vehicle: carboxymethylcellulose (CMC) 92 % of control | dose: 6.25 mg/kg/injection, schedule: Q01DX Z (ip), vehicle: carboxymethylcellulose (CMC) 119 % of control | [2] 95 % of control | dose: 12.5 mg/kg/injection, schedule: Q01DX Z (ip), vehicle: carboxymethylcellulose (CMC) 90 % of control | [3] 95 % of control | [6] 86 % of control

O[C@H](CN1CC1)[C@@H](O)CN1CC1
inactive: dose: 8.0 micrograms/kg/injection, schedule: Q01DX Z (ip), vehicle: carboxymethylcellulose (CMC) 113 % of control | dose: 16.0 micrograms/kg/injection, schedule: Q01DX Z (ip), vehicle: carboxymethylcellulose (CMC) 112 % of control | dose: 31.0 micrograms/kg/injection, schedule: Q01DX Z (ip), vehicle: carboxymethylcellulose (CMC) 118 % of control | dose: 31.3 micrograms/kg/injection, schedule: Q01DX010 (ip), vehicle: saline 100 % of control | dose: 62.5 micrograms/kg/injection, schedule: Q01DX010 (ip), vehicle: saline 106 % of control | [1] 112 % of control
active: dose: 250.0 micrograms/kg/injection, schedule: Q01DX010 (ip), vehicle: saline 150 % of control | dose: 250.0 micrograms/kg/injection, schedule: Q01DX Z (ip), vehicle: carboxymethylcellulose (CMC) 170 % of control | dose: 500.0 micrograms/kg/injection, schedule: Q01DX Z (ip), vehicle: carboxymethylcellulose (CMC) 172 % of control and 200 % of control

C[C@H]1C(=O)O[C@@H]2CCN3CC=C(COC(=O)[C@](C)(O)[C@@]1(C)O)[C@H]23
inactive: dose: 0.99 mg/kg/injection, schedule: Q01DX Z (ip), vehicle: carboxymethylcellulose (CMC) 97 % of control | dose: 1.88 mg/kg/injection, schedule: Q01DX Z (ip), vehicle: carboxymethylcellulose (CMC) 94 % of control | dose: 3.13 mg/kg/injection, schedule: Q01DX010 (ip), vehicle: saline 100 % of control | dose: 3.75 mg/kg/injection, schedule: Q01DX Z (ip), vehicle: carboxymethylcellulose (CMC) 90 % of control | dose: 6.25 mg/kg/injection, schedule: Q01DX010 (ip), vehicle: saline 100 % of control | dose: 12.5 mg/kg/injection, schedule: Q01DX010 (ip), vehicle: saline 121 % of control and 87 % of control | dose: 25.0 mg/kg/injection, schedule: Q01DX010 (ip), vehicle: saline 115 % of control and 100 % of control | dose: 50.0 mg/kg/injection, schedule: Q01DX010 (ip), vehicle: saline 94 % of control

NC(CCSCc1ccc(N(CCCl)CCCl)cc1)C(=O)O (stereo not given)
inactive: dose: 4.5 mg/kg/injection, schedule: Q01DX010 (ip), vehicle: saline 88 % of control | dose: 9.0 mg/kg/injection, schedule: Q01DX010 (ip), vehicle: saline 100 % of control | dose: 18.0 mg/kg/injection, schedule: Q01DX010 (ip), vehicle: saline 88 % of control | dose: 36.0 mg/kg/injection, schedule: Q01DX010 (ip), vehicle: saline 100 % of control
active: dose: 54.0 mg/kg/injection, schedule: Q01DX010 (ip), vehicle: saline 161 % of control | [5] 172 % of control
